Test [1] addresses T1, Aurora kinase A (Homo sapiens) (UniProt O14965).
T1 sequence (whole entry): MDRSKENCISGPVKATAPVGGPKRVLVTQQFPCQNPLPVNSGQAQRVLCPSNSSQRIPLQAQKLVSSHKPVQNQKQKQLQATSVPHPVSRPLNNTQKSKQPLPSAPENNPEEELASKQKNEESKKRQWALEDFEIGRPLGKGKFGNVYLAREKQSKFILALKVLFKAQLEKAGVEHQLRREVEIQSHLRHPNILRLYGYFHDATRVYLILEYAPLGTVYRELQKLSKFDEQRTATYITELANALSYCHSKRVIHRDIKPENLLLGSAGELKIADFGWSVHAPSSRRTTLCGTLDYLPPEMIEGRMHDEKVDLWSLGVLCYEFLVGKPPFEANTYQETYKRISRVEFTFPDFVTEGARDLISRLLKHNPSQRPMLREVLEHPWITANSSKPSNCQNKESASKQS
The experiment in a line: Inhibition of Aurora A kinase at 50 uM.

Another test concerns the target T2, Aurora kinase A (Homo sapiens, UniProt O14965).
T2 sequence (O14965 whole entry): T1 sequence (whole entry)
The experiment in a line: Inhibition of Aurora A kinase.

Test [2] addresses T1, Aurora kinase A (Homo sapiens). The experiment in a line: Inhibition of Aurora A kinase at 10 uM.
For another test, the target named is T3, Aurora kinase C (Homo sapiens, UniProt Q9UQB9).
T3 sequence (Q9UQB9 whole entry): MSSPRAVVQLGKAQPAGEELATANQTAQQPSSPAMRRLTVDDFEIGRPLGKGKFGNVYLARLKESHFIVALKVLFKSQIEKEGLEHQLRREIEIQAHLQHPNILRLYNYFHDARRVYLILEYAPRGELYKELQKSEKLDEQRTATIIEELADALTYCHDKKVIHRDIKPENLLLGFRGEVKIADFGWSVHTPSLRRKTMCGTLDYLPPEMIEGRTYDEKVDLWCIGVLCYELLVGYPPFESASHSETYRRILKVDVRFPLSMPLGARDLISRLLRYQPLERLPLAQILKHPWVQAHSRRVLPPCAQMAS
The experiment in a line: Inhibition of Aurora C kinase.

On to `CC(=O)Nc1cccc(CN2Cc3c([nH]c4cc(-c5ccco5)nn4c3=O)C2=O)c1`, for which the inhibition (usually how much of the control response was suppressed) was 87.8% in test [1] and 35.8% in test [2]. Besides, 18.3 µM corresponded to half-maximal inhibition against Aurora kinase A (IC50).
With `O=C1c2[nH]c3cc(-c4ccco4)nn3c(=O)c2CN1CCc1ccccc1`, the inhibition in test [1] amounted to 83.9%; in test [2], 19.6%.
On the same counts, the results for `COc1ccc(CN2Cc3c([nH]c4cc(-c5ccco5)nn4c3=O)C2=O)cc1OC` are 70.8% and 7.8%.
`O=C1c2[nH]c3cc(-c4ccco4)nn3c(=O)c2CN1CCN1CCOCC1`: the inhibition in test [1] was 10.7%; in test [2], 0.9%.
For `O=C1c2nc3cc(-c4ccco4)nn3c(O)c2CN1Cc1ccccc1`, the inhibition in test [1] was 90.2%; in test [2], 35.6%. In addition, the IC50 – broadly, the midpoint of a concentration-inhibition curve – against Aurora kinase A came out at 15.1 µM.
`O=C1c2[nH]c3cc(-c4ccco4)nn3c(=O)c2CN1c1ccccc1`: the results for the inhibition in test [1] and in test [2] were 73.7% and 7.6%, respectively.
The like results for `O=C1c2[nH]c3ccnn3c(=O)c2CN1Cc1ccccc1` were, in that order, 14.5% and 1.6%.
As to `COc1ccc(CN2Cc3c([nH]c4cc(-c5ccco5)nn4c3=O)C2=O)cc1`, the inhibition in test [1] was found to be 88.2%; in test [2], 42.4%. The same molecule had an IC50 at Aurora kinase A of 8 µM.
In the case of `O=C1c2[nH]c3cc(-c4ccco4)nn3c(=O)c2CN1Cc1ccccn1`, the inhibition in test [1] was found to be 79.2%; in test [2] it was 21.6%.
Consider `O=C1c2[nH]c3cc(-c4ccco4)nn3c(=O)c2CN1CCCc1ccccc1`, for which the figures for the inhibition in test [1] and in test [2] were 84.4% and 16.4%, respectively.
Turning to `O=C1c2[nH]c3cc(-c4ccco4)nn3c(=O)c2CN1Cc1ccc2c(c1)OCO2`, the inhibition in test [1] came out at 75.2%; in test [2], 12.3%.
On to `O=C1c2[nH]c3cc(-c4ccco4)nn3c(=O)c2CN1Cc1ccc(F)cc1`, for which the inhibition in test [1] stood at 89.8%; in test [2] it was 24%.
For the molecule `O=C1c2nc3cc(-c4ccccc4)nn3c(O)c2CN1Cc1ccccc1`, the inhibition in test [1] turned out to be 47.2%; in test [2] it was 25.9%.
For `Cn1c2c(c(=O)n3nc(-c4ccco4)cc13)CN(Cc1ccccc1)C2=O`, the inhibition in test [1] came out at 3.4%; in test [2], 2.3%.
The like results for `Cc1cc2[nH]c3c(c(=O)n2n1)CN(Cc1ccccc1)C3=O` were, in that order, 20.8% and 1.8%.
`O=C1c2[nH]c3cc(-c4cccs4)nn3c(=O)c2CN1Cc1ccccc1`: the inhibition in test [1] was found to be 72.3%; in test [2] it was 29.4%.
As for `COc1cc(CN2Cc3c([nH]c4cc(-c5ccco5)nn4c3=O)C2=O)cc(OC)c1`, the figures for the inhibition in test [1] and in test [2] were 75.3% and 10.1%, respectively.
Consider `O=C1c2c(c(=O)n3nc(-c4ccco4)cc3n2CCN2CCOCC2)CN1Cc1ccccc1`, for which the inhibition turned out to be 1.1% in test [1] and 0% in test [2].
On to `COc1ccccc1CN1Cc2c([nH]c3cc(-c4ccco4)nn3c2=O)C1=O`, for which the inhibition amounted to 95.1% in test [1] and 51.6% in test [2]. The molecule further registered a 50% inhibitory concentration (IC50) against Aurora kinase A of 5.6 µM.
Turning to `CO[C@@H](C(=O)N1Cc2n[nH]c(NC(=O)c3ccc(N4CCN(C)CC4)cc3)c2C1)c1ccccc1` [DANUSERTIB], affinity at Aurora kinase C was put at a Ki of 0.061 µM. This lies in the double-digit nanomolar range.
As for `COc1cccc(CN2Cc3c([nH]c4cc(-c5ccco5)nn4c3=O)C2=O)c1`, the inhibition was found to be 90% in test [1] and 29.3% in test [2]. Moreover, the IC50 against Aurora kinase A stood at 15.2 µM.
As to `O=C1c2[nH]c3cc(-c4ccco4)nn3c(=O)c2CN1Cc1cccc2ccccc12`, the values for the inhibition in test [1] and in test [2] were 79.9% and 30.4%, respectively.

These data come from ChEMBL document CHEMBL1141648, “Aurora kinase A inhibitors: identification, SAR exploration and molecular modeling of 6,7-dihydro-4H-pyrazolo-[1,5-a]pyrrolo[3,4-d]pyrimidine-5,8-dione scaffold” (Bioorg Med Chem Lett, 2008).
